From patent publication US20050154537A1, “Methods, program products, and systems for single and multi-agent dosing and other related methods” (priority 2003, published 2005) come the findings set out here.

The subject of the data set is ANC. Nature of the data set: Chemotherapeutic doublet cycle dose modifier (Taxol, Gemzar), ANC marker. Type of data set: in vivo. Particulars: ANC of patient on doublet. From the text: Gemzar and Taxol are used in this example as dual agents. Table 2 illustrates a method of revising a drug dose in treating a patient with two pharamcologic and non-pharmacological modalities to optimize pharmacologic outcome, e.g., to reduce risk of an adverse drug event while assessing the clinical relevancy and validity of the measured surrogate markers.
Previous Level of Toxicity-Efficacy (PLTE) is a value directly entered such as from a lab report. It is the numerical value of the marker of toxicity or efficacy reported at the previous dose cycle adjustment (evaluated at a specified elapsed time sufficient to capture the nadir of the dose effect). The surrogate marker is selected when the dose modifier is constructed.
Current Level of Toxicity-Efficacy (CLTE) is a value directly entered such as from a lab report. It is the numerical value of the marker of toxicity or efficacy reported with the current dose cycle. The surrogate marker is that value that illustrates the expression of the toxicity or efficacy of the agent on a specific and pre-selected value determined when the dose modifier is constructed. […] If valid, then the value is fully appreciated and the dose modification can be calculated. […]
Projected Marker Agent 1 (Taxol) (PM1) is calculated by a dose modifier. […]
Projected Marker Agent 2 (Gemzar) (PM2) is calculated by a dose modifier. […]

Take `CC(=O)O[C@H]1C(=O)[C@@]2(C)[C@H]([C@H](OC(=O)c3ccccc3)[C@]3(O)C[C@H](OC(=O)[C@H](O)[C@@H](NC(=O)c4ccccc4)c4ccccc4)C(C)=C1C3(C)C)[C@]1(OC(C)=O)CO[C@@H]1C[C@@H]2O` [Taxol]: the “Current Level of Toxicity/CLTEM1” value (current cycle total dose Taxol 300, Gemzar 6200, marker 9 days after dose) is 1.50. Under “previous cycle total dose Taxol 385, Gemzar 7650”, the “Previous Level of Toxicity/PLTEM1” value is given as 1.00.
